Two compounds from patent US12679836B2, “4H-pyrrolo[3,2-c]pyridin-4-one compounds” (Bayer Aktiengesellschaft, priority 2019, dated 2026) can be followed below.

Molecules are shown by their SMILES.

One assay addresses Ba/F3-EGFR-insSVD cells (Homo sapiens, UniProt P00533, DUP768-770, cells depend on it). Kind of assay: Ba/F3 cell survival assay (Cell Titer-Glo), EGFR-insSVD. It is filed as cell-based. The note with it: without IL-3, with 10 ng/mL EGF, 48 h; read-out: BA/F3 (insSVD) IC50. In a few lines:
(§1)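 Ba/F3 cells stably expressing WT EGFR or EGFR-insSVD from retroviral transduction were grown without IL-3 on 10 ng/mL EGF. Cells were plated at 4000 cells/well, treated with compound for 48 h at 37° C, and viability was read by CellTiter-Glo luminescence.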
A general note: In ATP-based viability assays light output follows the ATP content of the culture.

Another assay deals with Ba/F3-EGFR-L858R cells (Homo sapiens, UniProt P00533, L858R, cells depend on it). Nature of the assay: Ba/F3 cell survival assay, EGFR L858R. The note with it: without IL-3, without EGF, 48 h; read-out: BA/F3 (EGFR L858R) IC50. It is filed as cell-based. As to the method: (§2) 293T cells from ATCC were transfected with pBABEpuro expression constructs for mutant EGFR (V769_D770insASV, D770_N771insNPG, N771_P772insH, H773_V774insNPH, E746_A750del, L858R, D770_N771insSVD C797S, E746_A750del C797S, L858R C797S, L861Q) or mutant ERBB2 (A775_G776insYVMA) and pCL-Eco packaging vector using Fugene-6 transfection reagent from Promega. Plates were incubated at 37° C. for 48 h. Retrovirus was harvested by filtering the media supernatant through a 0.45 μm filter.
(§3) Ba/F3 cells purchased from DSMZ were grown in RPMI+10% FBS+10 ng/mL IL-3 and infected with filtered retroviral supernatant at a 1:2 dilution. Polybrene was added to a concentration of 8 μg/mL, plates were spun for 90 min, and incubated overnight at 37° C. 2 μg/mL puromycin was added to the infected cells 24 h after infection and cells were continually grown in the presence of puromycin and 10 ng/mL IL-3. Following stably expressing Ba/F3 cell lines were generated: Ba/F3-EGFR-V769_D770insASV, Ba/F3-EGFR-D770_N771insNPG, Ba/F3-EGFR-N771_P772insH, Ba/F3-EGFR-H773_V774insNPH, Ba/F3-EGFR-E746_A750del, Ba/F3-EGFR-L858R, Ba/F3-EGFR-D770_N771 insSVD C797S, Ba/F3-EGFR-E746_A750del C797S, Ba/F3-EGFR-L858R C797S, Ba/F3-EGFR L861Q and Ba/F3-ERBB2-A775_G776insYVMA (Ba/F3-vector-control).
(§4) For cell survival assays, Ba/F3 cells were grown to a density of 1-2 million cells per mL, spun down and resuspended in media without IL-3, and replated at a concentration 200,000-500,000 cells per mL. The cells ectopically expressing WT EGFR plated with 10 ng/mL Millipore Culture grade EGF and Ba/F3 cells containing mutant EGFR or Mutant ERBB2 were cultivated without EGF. The cells ectopically expressing pBABEpuro empty vector were plated with 10 ng/mL IL-3.
(§5) 2 days later, cells were plated in 50 μL in a 384 well plate at a concentration of 4000 cells per well for cells assayed in the absence of IL-3 and 2000 cells per well for cells assayed in the presence of IL-3. 100 nL of compound was added to each well using a 100 nL pin head, and plates were incubated at 37° C. for 48 h.
(§6) Cell viability was measured by adding 20 μL of Cell Titer-Glo Luminescent Cell Viability Reagent diluted 1:3 in PBS. Plates were sealed with Perkin Elmer Top-Seal, inverted several times to mix, and immediately centrifuged at 1000 rpm for 2 min. Plates were incubated in low light conditions for 8-10 min and luminescence was measured.

The target of a further assay is Ba/F3-EGFR-WT cells (Homo sapiens, UniProt P00533). Nature of the assay: Ba/F3 cell survival assay (Cell Titer-Glo), WT EGFR. The note with it: without IL-3, with 10 ng/mL EGF, 48 h; read-out: BA/F3 (wild type) IC50. It is filed as cell-based. In a few lines:
as §1

In assay [1] the target is Ba/F3-EGFR-E746_A750del cells (Homo sapiens, UniProt P00533, DEL746-750, cells depend on it). Kind of assay: Ba/F3 cell survival assay, EGFR E746_A750del. It is filed as cell-based. The note with it: without IL-3, without EGF, 48 h; read-out: BA/F3 (EGFR E746_A750del) IC50. As to the method:
as §2, §3, §4, §5, §6

The target in assay [2] is T1, EGFR with insertion of SVD between D770 and N771 (EGFR ins SVD) (Homo sapiens, UniProt P00533, DUP768-770).
T1 construct: made in house; host or cells: Sf9 insect cells (baculovirus)
T1 sequence (P00533 with tags, fused parts or gaps DUP768-770): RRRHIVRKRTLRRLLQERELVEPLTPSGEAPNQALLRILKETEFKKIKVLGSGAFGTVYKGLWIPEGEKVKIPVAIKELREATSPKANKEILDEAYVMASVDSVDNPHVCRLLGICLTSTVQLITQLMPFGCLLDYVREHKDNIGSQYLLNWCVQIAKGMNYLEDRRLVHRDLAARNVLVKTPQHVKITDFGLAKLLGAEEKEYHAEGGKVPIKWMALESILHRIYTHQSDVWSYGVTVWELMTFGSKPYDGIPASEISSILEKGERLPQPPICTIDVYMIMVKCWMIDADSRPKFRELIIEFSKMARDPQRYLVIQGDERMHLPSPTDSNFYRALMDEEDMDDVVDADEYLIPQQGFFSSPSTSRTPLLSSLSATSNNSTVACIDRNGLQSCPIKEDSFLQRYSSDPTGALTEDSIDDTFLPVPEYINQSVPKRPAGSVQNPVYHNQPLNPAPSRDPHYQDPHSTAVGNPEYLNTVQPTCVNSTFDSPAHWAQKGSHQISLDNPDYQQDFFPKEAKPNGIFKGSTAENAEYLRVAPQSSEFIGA
Kind of assay: Exon20-Mutant-EGFR(D770_N771insSVD) kinase assay (TR-FRET). The note with it: 2 mM ATP, several values per example where printed. In kind it is biochemical. In general terms: Time-resolved FRET reads energy transfer from a long-lived donor to a nearby acceptor.

For a further assay, the target named is T2, Bub1 (Homo sapiens, UniProt O43683).
T2 construct: catalytic domain of human Bub1 (amino acids 704-1085); His6 (N); made in house; host or cells: Hi5 insect cells
T2 sequence (O43683 704-1085): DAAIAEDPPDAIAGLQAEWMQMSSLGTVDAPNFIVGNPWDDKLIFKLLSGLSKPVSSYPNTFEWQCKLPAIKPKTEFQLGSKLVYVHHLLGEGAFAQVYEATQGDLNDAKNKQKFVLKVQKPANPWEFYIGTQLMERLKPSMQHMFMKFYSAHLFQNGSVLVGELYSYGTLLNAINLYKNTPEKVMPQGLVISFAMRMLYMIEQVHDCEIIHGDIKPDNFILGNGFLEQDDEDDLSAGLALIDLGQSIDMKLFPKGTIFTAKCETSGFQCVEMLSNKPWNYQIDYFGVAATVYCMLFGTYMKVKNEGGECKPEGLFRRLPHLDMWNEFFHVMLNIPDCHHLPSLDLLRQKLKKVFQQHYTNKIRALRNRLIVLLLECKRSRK
Kind of assay: Bub1 TR-FRET high ATP kinase assay. The note with it: Bub1 high ATP (2 mM) IC50 [mol/l], 2 mM ATP. In kind it is biochemical. In a few lines:
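Recombinant His6-tagged human Bub1 catalytic domain (aa 704-1085), from Hi5 insect cells, phosphorylating a biotinylated peptide substrate at high ATP concentration. TR-FRET read-out.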

The target of a further assay is Ba/F3-EGFR L861Q cells (Homo sapiens, UniProt P00533, L861Q, cells depend on it). Kind of assay: Ba/F3 cell survival assay, EGFR L861Q. In kind it is cell-based. The note with it: without IL-3, without EGF, 48 h; read-out: BA/F3 (EGFR L861Q) IC50. Here is the method:
as §2, §3, §4, §5, §6

Assay [3] addresses Ba/F3-ERBB2-A775_G776insYVMA cells (Homo sapiens, UniProt P04626, DUP772-775, cells depend on it). Nature of the assay: Ba/F3 cell survival assay, ERBB2 A775_G776insYVMA. It is filed as cell-based. The note with it: without IL-3, without EGF, 48 h; read-out: BA/F3 (ERBB2 A775_G776 insYVMA) IC50. As to the method:
as §2, §3, §4, §5, §6

For a further assay, the system named is PC9 cells (EGFRex19del). Kind of assay: PC9 proliferation assay (Cell Titer Glo). In kind it is cell-based. The note with it: Homo sapiens, PC-9, 72 h. Here is the method:
Cellular Data Description (PC9 Cells, EGFRex19del)
(§7) PC9 cells were purchased from ATCC. 400 PC9 cells per well were seeded in growth medium (DMEM, 10% FCS) in a 384-well plate (CORNING #3571). Seed reference plate for time zero determination on the same day. All plates were incubated overnight at 37° C. After 24 hours, test compound were added in 7-step dilution using HP Compound printer and incubated at 37° C. for 72 h. After 3 days, 30 μL/well CTG solution (Promega Cell Titer Glo solution; catalog # G755B and G756B) were added to each well, incubated for 30 minutes and the plate were read on PheraStar. Proliferation is calculated after subtracting time zero luminescence values from day 4 values and comparing to untreated wells. The IC50 values were determined using the four parameter fit.

Assay [4] concerns HCC-827 cells (EGFRex19del). Kind of assay: HCC-827 proliferation assay (Cell Titer Glo). It is filed as cell-based. The note with it: Homo sapiens, HCC827, 72 h. Here is the method: Cellular Data Description (HCC-827 Cells, EGFRex19del)
as §7, with “HCC-827 cells” for “PC9 cells”, “[…]” for “400 PC9”, “medium (RPM11640,” for “medium (DMEM,”, “wells.” for “wells. The IC50 values were determined using the four parameter fit.”
The IC50 values were determined using the four parameter fit.

Ba/F3-EGFR-insSVD cells, sequence (P00533 with tags, fused parts or gaps DUP768-770): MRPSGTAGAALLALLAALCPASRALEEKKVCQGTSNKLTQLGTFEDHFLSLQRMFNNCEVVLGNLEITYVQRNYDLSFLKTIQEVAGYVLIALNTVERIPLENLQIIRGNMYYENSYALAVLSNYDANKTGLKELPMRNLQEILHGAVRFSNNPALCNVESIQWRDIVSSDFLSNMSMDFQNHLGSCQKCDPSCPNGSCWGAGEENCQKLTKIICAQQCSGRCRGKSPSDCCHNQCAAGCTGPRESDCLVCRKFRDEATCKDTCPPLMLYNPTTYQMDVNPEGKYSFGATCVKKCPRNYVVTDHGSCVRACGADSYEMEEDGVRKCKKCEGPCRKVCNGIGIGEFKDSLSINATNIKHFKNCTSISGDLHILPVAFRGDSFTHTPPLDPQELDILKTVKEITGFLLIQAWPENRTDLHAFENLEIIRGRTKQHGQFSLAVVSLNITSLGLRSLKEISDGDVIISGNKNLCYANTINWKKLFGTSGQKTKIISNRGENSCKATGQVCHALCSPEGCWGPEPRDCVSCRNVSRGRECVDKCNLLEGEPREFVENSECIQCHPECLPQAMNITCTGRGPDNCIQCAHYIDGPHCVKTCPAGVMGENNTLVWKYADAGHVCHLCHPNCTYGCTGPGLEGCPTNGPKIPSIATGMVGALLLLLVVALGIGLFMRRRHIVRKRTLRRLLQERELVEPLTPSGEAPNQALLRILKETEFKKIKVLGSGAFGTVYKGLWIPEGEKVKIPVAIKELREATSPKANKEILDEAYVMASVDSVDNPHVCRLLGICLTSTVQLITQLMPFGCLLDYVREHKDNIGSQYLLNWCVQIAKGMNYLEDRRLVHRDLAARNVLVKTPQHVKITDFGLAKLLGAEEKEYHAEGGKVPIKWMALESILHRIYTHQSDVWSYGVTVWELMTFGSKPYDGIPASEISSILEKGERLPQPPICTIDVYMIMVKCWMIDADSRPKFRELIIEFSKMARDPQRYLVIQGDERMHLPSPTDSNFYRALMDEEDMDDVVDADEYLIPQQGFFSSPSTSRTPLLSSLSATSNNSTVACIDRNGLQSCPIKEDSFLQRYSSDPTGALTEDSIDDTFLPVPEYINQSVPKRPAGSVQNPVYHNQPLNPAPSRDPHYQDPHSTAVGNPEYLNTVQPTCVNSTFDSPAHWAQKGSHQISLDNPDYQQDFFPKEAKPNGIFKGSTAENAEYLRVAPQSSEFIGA
Ba/F3-EGFR-WT cells, sequence (P00533 whole entry, change not shown): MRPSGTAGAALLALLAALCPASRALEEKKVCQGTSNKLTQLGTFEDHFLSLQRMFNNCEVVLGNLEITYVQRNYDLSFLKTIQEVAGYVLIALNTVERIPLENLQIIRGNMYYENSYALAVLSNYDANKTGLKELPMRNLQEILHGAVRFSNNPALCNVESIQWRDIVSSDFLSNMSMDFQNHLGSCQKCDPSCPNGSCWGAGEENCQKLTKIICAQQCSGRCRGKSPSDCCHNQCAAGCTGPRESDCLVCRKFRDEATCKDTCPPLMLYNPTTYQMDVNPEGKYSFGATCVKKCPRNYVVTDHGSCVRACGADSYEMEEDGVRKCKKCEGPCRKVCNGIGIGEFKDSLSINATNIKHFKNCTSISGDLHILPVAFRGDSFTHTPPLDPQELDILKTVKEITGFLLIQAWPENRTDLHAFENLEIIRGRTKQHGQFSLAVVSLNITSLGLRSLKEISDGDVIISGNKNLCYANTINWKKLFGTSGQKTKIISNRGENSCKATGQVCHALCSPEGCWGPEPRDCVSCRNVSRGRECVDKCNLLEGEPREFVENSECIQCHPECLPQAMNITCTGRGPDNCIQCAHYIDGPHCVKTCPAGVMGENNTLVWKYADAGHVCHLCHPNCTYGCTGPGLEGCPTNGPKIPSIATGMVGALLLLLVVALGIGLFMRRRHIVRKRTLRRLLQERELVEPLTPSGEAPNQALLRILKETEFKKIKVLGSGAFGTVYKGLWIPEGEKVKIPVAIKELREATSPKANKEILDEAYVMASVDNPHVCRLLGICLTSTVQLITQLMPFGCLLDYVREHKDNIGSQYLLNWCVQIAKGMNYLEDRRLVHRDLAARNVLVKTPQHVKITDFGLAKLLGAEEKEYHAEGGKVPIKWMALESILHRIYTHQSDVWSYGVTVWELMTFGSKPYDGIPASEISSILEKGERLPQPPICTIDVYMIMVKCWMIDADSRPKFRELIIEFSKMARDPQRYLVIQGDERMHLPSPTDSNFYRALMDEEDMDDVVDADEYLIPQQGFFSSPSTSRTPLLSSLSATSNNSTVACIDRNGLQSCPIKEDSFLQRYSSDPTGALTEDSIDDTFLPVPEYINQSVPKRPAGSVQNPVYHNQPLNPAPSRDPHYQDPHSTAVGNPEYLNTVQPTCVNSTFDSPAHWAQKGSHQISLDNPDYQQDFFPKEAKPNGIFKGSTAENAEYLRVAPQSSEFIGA
Ba/F3-EGFR-E746_A750del cells, sequence (P00533 with tags, fused parts or gaps DEL746-750): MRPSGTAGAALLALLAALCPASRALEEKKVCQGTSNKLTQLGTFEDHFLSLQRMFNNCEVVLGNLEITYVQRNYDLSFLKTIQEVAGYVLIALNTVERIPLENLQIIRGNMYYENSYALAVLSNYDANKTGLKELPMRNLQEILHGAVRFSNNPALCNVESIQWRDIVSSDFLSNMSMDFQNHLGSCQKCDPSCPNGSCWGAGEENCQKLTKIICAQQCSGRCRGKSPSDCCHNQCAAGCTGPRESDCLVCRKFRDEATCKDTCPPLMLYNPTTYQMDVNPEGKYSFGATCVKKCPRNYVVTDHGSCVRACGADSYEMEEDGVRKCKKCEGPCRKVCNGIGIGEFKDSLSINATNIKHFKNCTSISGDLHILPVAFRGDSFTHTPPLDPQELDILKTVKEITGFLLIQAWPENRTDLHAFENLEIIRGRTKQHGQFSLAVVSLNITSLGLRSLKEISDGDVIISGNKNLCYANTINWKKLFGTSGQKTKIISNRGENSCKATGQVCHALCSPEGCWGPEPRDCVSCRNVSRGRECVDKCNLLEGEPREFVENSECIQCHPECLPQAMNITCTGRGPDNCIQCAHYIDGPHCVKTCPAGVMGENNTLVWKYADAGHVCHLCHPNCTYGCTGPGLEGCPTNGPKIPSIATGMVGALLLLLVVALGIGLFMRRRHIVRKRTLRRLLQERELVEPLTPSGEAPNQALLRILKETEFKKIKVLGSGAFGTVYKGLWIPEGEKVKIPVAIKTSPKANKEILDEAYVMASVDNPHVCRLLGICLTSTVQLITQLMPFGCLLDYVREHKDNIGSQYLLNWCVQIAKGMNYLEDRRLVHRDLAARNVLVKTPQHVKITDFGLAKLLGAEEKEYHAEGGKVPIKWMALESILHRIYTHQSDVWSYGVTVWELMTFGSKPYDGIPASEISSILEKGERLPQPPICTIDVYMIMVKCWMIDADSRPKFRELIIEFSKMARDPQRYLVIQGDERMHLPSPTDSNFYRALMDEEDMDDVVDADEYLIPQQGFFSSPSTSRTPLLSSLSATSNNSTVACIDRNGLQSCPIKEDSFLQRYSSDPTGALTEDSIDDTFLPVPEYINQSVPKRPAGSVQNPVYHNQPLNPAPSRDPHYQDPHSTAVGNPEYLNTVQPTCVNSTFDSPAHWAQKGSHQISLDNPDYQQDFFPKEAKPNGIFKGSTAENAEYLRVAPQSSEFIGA

With `CCc1c(Cl)cccc1Nc1c(-c2ccncc2OCC2CN(C)CCO2)[nH]c2c1C(=O)NCC2` (centres unmarked) [Example 29, 3-(3-chloro-2-ethylanilino)-2-{3-[(4-methylmorpholin-2-yl)methoxy]pyridin-4-yl}-1,5,6,7-tetrahydro-4H-pyrrolo[3,2-c]pyridin-4-one], the GI50 on Ba/F3-EGFR-insSVD cells is 0.0336 µM; on Ba/F3-EGFR-L858R cells, 0.000964 µM; on Ba/F3-EGFR-WT cells, 0.621 µM; in assay [1], 0.000332 µM; on Ba/F3-EGFR L861Q cells, 0.0162 µM. Also, the “mutEGFR (D770_N771insSVD) kinase assay IC50” value in [2] was 0.000547 µM. This compound came in with a 50% inhibitory concentration (IC50) on Bub1 of 17.2 µM.

As to `COc1c(F)cccc1Nc1c(-c2ccncc2OCC2COCCO2)[nH]c2c1C(=O)NCC2` (single isomer, unassigned) [Example 6, 2-{3-[(1,4-dioxan-2-yl)methoxy]pyridin-4-yl}-3-(3-fluoro-2-methoxyanilino)-1,5,6,7-tetrahydro-4H-pyrrolo[3,2-c]pyridin-4-one], the GI50 in assay [3] was found to be 0.0318 µM; on Ba/F3-EGFR-insSVD cells, 0.0503 µM; at Ba/F3-EGFR-WT cells it was 0.785 µM. In addition, the values for the IC50 (in the assay with PC9 cells (EGFRex19del); in assay [4]; on Bub1) were 0.00194 µM, < 0.003 µM and 6.31 µM, respectively. Moreover, the “mutEGFR (D770_N771insSVD) kinase assay IC50” value in [2] turned out to be 0.0001 µM.

As a reminder, the IC50 is the concentration that gives 50% inhibition. Lower therefore signals greater potency.
